Values quoted from earlier work, collected in patent publication US20080139609A1, “GRANISETRON COMPOSITIONS” (priority 2006, published 2008).

Key:
[1] = test system: other serotonin receptors; conditions: selective 5-HT3 receptor antagonist
[2] = in water and in normal saline at 20° C.

Row | SMILES | Affinity for other serotonin receptors [1] | Solubility [2]
1 | CN1C2CCCC1CC(NC(=O)c1nn(C)c3ccccc13)C2 (centres unmarked) [Granisetron] | little or no affinity | –
2 | CN1C2CCCC1CC(NC(=O)c1nn(C)c3ccccc13)C2.Cl (stereo not drawn) [Granisetron hydrochloride, endo-N-(9-methyl-9-azabicyclo[3.3.1]non-3-yl)-1-methyl-1H-indazole-3-carboxamide hydrochloride] | – | readily soluble
